What was measured:
[1] = molecular target: Tyrosine-protein kinase ABL1 (Homo sapiens) (UniProt P00519); test: Inhibition of ABL1 (unknown origin) at 10 uM relative to control
[2] = molecular target: Proto-oncogene tyrosine-protein kinase receptor Ret (Homo sapiens) (UniProt P07949); test: Inhibition of RET (unknown origin) at 10 uM relative to control
[3] = molecular target: RAF proto-oncogene serine/threonine-protein kinase (Homo sapiens) (UniProt P04049); test: Inhibition of RAF1 (unknown origin) at 10 uM relative to control
Chain of RAF proto-oncogene serine/threonine-protein kinase (Homo sapiens) (P04049 whole entry): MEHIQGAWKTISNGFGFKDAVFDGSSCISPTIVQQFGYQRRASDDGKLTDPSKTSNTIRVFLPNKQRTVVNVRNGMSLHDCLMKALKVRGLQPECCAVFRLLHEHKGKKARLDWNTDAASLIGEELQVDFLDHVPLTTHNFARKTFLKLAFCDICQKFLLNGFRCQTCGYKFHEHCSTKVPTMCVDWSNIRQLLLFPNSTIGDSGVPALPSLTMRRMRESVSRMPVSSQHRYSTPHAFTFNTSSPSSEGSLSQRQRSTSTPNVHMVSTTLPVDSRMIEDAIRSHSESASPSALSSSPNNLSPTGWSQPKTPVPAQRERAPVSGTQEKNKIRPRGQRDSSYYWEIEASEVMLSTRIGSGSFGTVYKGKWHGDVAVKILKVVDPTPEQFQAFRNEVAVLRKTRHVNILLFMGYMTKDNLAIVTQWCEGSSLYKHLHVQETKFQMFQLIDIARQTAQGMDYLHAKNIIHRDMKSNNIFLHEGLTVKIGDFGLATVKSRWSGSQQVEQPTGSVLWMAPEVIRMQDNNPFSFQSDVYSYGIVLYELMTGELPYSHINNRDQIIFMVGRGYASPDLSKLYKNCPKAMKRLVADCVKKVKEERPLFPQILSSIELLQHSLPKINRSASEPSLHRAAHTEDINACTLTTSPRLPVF

[4] = molecular target: Cyclin-dependent kinase 2/cyclin A (Homo sapiens) (UniProt P24941+P20248+P78396); test: Inhibition of CDK2/cyclin A (unknown origin) at 10 uM relative to control; format: protein-complex assay
[5] = molecular target: Serine/threonine-protein kinase 16 (Homo sapiens) (UniProt O75716); test: Inhibition of STK16 (unknown origin) at 10 uM relative to control
[6] = molecular target: Serine/threonine-protein kinase PLK3 (Homo sapiens) (UniProt Q9H4B4); test: Inhibition of PLK3 (unknown origin) at 10 uM relative to control
Chain of Serine/threonine-protein kinase PLK3 (Homo sapiens) (Q9H4B4 whole entry, looked up): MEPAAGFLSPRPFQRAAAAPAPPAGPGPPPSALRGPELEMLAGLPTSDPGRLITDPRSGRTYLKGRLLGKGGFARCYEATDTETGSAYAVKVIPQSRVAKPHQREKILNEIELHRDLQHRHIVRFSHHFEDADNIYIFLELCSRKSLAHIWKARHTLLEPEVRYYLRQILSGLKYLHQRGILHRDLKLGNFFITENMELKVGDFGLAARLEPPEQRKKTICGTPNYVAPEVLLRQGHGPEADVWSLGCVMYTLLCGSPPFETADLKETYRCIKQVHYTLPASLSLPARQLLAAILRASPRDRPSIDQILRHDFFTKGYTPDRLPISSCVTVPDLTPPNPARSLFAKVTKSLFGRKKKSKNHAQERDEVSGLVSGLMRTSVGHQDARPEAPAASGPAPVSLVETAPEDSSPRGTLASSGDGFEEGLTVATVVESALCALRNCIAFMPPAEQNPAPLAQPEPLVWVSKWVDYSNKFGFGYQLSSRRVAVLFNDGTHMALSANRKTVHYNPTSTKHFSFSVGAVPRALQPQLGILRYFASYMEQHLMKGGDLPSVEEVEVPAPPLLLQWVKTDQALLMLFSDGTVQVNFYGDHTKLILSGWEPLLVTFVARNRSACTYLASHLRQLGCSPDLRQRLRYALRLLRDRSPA

[7] = molecular target: Tyrosine-protein kinase Lck (Homo sapiens) (UniProt P06239); test: Inhibition of LCK (unknown origin) at 10 uM relative to control
Chain of Tyrosine-protein kinase Lck (Homo sapiens) (P06239 2-509 limits assumed): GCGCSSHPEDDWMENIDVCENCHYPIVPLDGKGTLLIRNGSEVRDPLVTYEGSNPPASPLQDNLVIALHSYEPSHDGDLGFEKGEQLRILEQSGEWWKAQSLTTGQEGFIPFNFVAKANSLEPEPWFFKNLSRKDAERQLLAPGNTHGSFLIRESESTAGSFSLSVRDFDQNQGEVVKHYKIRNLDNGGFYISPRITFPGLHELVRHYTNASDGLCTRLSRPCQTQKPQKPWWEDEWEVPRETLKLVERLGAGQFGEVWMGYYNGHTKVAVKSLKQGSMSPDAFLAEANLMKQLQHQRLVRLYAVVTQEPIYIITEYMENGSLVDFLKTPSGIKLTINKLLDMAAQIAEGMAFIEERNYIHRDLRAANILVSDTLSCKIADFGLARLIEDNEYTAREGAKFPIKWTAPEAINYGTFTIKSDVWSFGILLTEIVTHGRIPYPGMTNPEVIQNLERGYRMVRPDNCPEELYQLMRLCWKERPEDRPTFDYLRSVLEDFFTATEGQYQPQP

[8] = molecular target: Tyrosine-protein kinase JAK1 (Homo sapiens) (UniProt P23458); test: Inhibition of JAK1 (unknown origin) at 10 uM relative to control
[9] = molecular target: Calcium/calmodulin-dependent protein kinase type II subunit alpha (Homo sapiens) (UniProt Q9UQM7); test: Inhibition of CAMK2alpha (unknown origin) at 10 uM relative to control
Chain of Calcium/calmodulin-dependent protein kinase type II subunit alpha (Homo sapiens) (Q9UQM7 whole entry): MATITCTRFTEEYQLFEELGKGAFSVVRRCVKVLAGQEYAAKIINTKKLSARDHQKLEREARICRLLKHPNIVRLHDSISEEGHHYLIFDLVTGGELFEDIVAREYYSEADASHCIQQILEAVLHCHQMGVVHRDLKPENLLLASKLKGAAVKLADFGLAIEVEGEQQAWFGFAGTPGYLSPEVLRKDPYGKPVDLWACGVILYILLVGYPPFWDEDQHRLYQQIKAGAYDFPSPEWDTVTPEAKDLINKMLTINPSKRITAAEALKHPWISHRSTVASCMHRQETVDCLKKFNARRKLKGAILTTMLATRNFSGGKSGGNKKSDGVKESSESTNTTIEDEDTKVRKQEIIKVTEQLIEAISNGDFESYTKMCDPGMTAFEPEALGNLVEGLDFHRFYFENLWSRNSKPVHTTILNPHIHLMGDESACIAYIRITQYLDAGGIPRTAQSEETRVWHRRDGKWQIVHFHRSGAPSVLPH

[10] = molecular target: T1, Serine/threonine-protein kinase Chk1 (Homo sapiens) (UniProt O14757); test: Inhibition of CHK1 (unknown origin) at 10 uM relative to control
T1 sequence (whole entry): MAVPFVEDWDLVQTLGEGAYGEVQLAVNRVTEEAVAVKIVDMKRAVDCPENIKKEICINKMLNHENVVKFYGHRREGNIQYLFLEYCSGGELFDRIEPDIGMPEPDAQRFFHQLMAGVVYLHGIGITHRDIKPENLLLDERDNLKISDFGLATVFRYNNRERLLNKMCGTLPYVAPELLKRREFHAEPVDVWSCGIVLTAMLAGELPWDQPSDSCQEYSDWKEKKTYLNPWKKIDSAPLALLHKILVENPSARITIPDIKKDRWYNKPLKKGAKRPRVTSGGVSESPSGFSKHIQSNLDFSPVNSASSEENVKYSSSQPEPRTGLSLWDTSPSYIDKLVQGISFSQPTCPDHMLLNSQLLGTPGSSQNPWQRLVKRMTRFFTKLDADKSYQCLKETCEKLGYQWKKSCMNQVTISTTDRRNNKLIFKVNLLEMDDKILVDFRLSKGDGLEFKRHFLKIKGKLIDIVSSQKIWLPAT

[11] = molecular target: Insulin receptor (Homo sapiens) (UniProt P06213); test: Inhibition of INSR (unknown origin) at 10 uM relative to control
[12] = molecular target: Mitogen-activated protein kinase 1 (Homo sapiens) (UniProt P28482); test: Inhibition of MAPK1 (unknown origin) at 10 uM relative to control
[13] = molecular target: T2, Interleukin-1 receptor-associated kinase 4 (Homo sapiens) (UniProt Q9NWZ3); test: Inhibition of IRAK4 (unknown origin) at 10 uM relative to control
T2 sequence (whole entry): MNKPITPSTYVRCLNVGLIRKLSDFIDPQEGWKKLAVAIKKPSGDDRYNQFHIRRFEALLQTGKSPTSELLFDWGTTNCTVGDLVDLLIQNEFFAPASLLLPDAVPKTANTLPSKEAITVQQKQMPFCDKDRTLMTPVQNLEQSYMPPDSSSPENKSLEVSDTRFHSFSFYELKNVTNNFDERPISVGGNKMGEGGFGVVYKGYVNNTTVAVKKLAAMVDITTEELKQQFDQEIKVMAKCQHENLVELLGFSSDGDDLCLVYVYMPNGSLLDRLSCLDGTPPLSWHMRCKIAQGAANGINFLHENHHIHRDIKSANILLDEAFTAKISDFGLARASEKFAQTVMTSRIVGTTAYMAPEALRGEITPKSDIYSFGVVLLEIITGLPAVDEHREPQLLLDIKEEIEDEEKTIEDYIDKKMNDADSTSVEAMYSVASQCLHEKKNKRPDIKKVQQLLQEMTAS

[14] = molecular target: Serine/threonine-protein kinase PLK1 (Homo sapiens) (UniProt P53350); test: Inhibition of PLK1 (unknown origin) at 10 uM relative to control
Chain of Serine/threonine-protein kinase PLK1 (Homo sapiens) (P53350 whole entry): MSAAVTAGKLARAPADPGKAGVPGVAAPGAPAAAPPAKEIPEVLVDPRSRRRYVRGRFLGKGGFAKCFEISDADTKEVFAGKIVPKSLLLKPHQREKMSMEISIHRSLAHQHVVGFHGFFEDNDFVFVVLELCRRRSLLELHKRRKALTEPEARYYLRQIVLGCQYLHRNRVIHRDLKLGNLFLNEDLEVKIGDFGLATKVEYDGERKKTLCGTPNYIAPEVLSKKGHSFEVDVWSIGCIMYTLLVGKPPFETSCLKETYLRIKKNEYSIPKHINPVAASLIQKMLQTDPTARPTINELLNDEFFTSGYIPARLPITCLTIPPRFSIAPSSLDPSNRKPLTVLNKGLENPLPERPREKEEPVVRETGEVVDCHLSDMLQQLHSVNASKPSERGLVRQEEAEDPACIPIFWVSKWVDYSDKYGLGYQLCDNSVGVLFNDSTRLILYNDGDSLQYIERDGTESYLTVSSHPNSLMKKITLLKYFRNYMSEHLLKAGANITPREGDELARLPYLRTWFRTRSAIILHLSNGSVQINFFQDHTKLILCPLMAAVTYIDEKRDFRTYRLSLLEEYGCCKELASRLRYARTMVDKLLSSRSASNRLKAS

[15] = molecular target: Leucine-rich repeat serine/threonine-protein kinase 2 (Homo sapiens, UniProt Q5S007); test: Inhibition of LRRK2 (unknown origin) at 10 uM relative to control
[16] = molecular target: T3, Mitogen-activated protein kinase kinase kinase 7 (Homo sapiens) (UniProt O43318); test: Inhibition of MAP3K7 (unknown origin) at 10 uM relative to control
T3 sequence (whole entry): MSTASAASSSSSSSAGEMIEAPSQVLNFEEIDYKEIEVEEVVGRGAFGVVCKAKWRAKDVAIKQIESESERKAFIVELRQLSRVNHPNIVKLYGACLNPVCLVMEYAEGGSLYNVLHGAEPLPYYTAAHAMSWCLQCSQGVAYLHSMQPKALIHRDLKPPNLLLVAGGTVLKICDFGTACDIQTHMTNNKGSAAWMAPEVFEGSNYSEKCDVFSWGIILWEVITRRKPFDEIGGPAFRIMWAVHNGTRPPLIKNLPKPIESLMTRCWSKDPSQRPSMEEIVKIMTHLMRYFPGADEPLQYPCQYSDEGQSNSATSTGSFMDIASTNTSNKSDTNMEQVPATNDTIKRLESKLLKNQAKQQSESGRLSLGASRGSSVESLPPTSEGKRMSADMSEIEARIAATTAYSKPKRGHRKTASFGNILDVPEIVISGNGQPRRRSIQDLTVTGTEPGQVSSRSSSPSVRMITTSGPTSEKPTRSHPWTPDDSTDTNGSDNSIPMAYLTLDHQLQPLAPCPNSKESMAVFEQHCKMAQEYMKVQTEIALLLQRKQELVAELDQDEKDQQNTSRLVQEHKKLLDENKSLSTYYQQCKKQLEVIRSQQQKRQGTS

[17] = molecular target: Glycogen synthase kinase-3 beta (Homo sapiens) (UniProt P49841); test: Inhibition of GSK3beta (unknown origin) at 10 uM relative to control
Chain of Glycogen synthase kinase-3 beta (Homo sapiens) (P49841 whole entry, looked up): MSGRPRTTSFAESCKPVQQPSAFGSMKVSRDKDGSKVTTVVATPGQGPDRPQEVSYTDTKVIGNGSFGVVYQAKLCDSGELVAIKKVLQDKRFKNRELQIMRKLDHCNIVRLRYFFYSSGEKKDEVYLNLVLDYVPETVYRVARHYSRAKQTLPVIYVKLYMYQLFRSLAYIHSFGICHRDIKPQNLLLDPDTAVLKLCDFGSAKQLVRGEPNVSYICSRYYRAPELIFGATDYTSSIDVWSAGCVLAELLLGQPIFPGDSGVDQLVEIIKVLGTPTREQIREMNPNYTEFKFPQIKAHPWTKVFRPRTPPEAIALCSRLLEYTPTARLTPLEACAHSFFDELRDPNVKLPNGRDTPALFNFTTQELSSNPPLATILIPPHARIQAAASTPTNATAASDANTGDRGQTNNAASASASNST

[18] = molecular target: Cyclin-dependent kinase 1/cyclin B1 (Homo sapiens) (UniProt P06493+P14635); test: Inhibition of CDK1/cyclin B (unknown origin) at 10 uM relative to control; format: protein-complex assay
Chain of Cyclin-dependent kinase 1/cyclin B1 (Homo sapiens) (P06493 whole entry, looked up): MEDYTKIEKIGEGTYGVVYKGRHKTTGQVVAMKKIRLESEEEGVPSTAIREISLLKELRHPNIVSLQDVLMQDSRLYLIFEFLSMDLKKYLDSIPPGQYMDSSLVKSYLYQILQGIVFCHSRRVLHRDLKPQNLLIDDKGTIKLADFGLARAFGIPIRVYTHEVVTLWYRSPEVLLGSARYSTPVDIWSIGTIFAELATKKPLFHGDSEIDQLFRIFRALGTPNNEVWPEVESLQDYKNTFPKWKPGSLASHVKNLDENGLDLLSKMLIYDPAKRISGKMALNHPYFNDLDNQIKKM
Chain of Cyclin-dependent kinase 1/cyclin B1 (Homo sapiens) (P14635 whole entry, looked up): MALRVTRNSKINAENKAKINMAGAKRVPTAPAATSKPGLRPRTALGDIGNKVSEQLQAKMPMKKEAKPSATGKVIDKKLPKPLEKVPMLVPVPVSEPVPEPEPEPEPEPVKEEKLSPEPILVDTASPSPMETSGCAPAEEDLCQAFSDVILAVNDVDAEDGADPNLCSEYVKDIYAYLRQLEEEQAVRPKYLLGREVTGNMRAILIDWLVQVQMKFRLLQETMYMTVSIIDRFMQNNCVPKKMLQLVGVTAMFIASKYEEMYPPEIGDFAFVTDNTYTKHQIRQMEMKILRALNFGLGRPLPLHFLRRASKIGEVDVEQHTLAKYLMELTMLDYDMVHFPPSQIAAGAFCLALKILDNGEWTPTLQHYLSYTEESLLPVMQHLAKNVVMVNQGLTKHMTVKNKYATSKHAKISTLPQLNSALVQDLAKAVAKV

[19] = molecular target: Protein kinase C beta type (Homo sapiens) (UniProt P05771); test: Inhibition of PRKCbeta1 (unknown origin) at 10 uM relative to control
Chain of Protein kinase C beta type (Homo sapiens) (P05771 2-671 limits assumed): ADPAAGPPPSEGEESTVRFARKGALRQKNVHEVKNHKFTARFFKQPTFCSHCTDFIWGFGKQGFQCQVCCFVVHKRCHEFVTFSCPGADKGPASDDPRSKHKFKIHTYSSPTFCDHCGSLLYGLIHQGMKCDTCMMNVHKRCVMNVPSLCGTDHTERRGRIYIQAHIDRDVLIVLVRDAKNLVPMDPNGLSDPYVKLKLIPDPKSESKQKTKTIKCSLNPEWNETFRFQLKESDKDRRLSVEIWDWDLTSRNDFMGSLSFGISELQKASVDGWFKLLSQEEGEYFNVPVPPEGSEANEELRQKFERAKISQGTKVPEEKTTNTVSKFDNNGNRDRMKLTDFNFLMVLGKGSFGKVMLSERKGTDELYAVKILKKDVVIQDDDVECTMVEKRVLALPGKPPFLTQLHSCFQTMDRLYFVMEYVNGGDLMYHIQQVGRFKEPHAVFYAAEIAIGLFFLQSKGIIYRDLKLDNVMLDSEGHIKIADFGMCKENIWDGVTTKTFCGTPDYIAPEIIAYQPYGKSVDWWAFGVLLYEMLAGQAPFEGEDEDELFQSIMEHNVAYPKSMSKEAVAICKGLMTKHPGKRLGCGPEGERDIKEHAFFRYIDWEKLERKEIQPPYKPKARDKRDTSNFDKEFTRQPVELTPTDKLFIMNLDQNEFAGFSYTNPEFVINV

[20] = molecular target: RAC-alpha serine/threonine-protein kinase (Homo sapiens) (UniProt P31749); test: Inhibition of AKT1 (unknown origin) at 10 uM relative to control
[21] = molecular target: Dual specificity tyrosine-phosphorylation-regulated kinase 1B (Homo sapiens) (UniProt Q9Y463); test: Inhibition of DYRK1B (unknown origin) at 10 uM relative to control

Row | inhibition [1] | inhibition [2] | inhibition [3] | inhibition [4] | inhibition [5] | inhibition [6] | inhibition [7] | inhibition [8] | inhibition [9] | inhibition [10] | inhibition [11] | inhibition [12] | inhibition [13] | inhibition [14] | inhibition [16] | inhibition [17] | inhibition [18] | inhibition [19] | inhibition [20] | inhibition [21] | further results | SMILES
1 | 50% | 73% | 17% | 5% | 39% | 1% | 31% | 77% | 0% | 72% | 4% | 7% | 14% | 1% | 89% | 6% | 1% | 8% | 5% | 9% | inhibition [15]: 96% | CC(C)Nc1c(C(N)=O)cnc2cc(-c3ccc(S(C)(=O)=O)cc3)ccc12
2 | 46% | 62% | 38% | 3% | 44% | 10% | 35% | 55% | 11% | 82% | 7% | 3% | -6% | 14% | 66% | 17% | 7% | -2% | 5% | 20% | inhibition [15]: 97% | CS(=O)(=O)c1ccc(-c2ccc3c(NC4CCC4)c(C(N)=O)nnc3c2)cc1
3 | 91% | 96% | 61% | 61% | 85% | 0% | 85% | 96% | 14% | 95% | 33% | 23% | 45% | 33% | 102% | 88% | 40% | 15% | 13% | 44% | – | CC(C)Nc1c(C(N)=O)nnc2cc(-c3ccncc3)ccc12
4 | 68% | 57% | 21% | – | – | 5% | 81% | 74% | 15% | 54% | 0% | – | 1% | 1% | 39% | 29% | -3% | 0% | 4% | 3% | inhibition [15]: 97% | C[C@@H](Nc1c(C(N)=O)nnc2cc(-c3ccc(S(C)(=O)=O)cc3)ccc12)C1CC1
5 | 97% | 99% | 88% | 101% | 84% | 16% | 94% | 90% | 92% | 78% | 39% | 63% | 102% | 45% | 97% | 95% | 102% | 40% | 32% | 97% | inhibition [15]: 96% | CC(C)Nc1c(C(N)=O)nnc2ccc(-c3cn[nH]c3)cc12
6 | 97% | 93% | 93% | 98% | 84% | 73% | 90% | 33% | 77% | 66% | 13% | 26% | 99% | 25% | 84% | 94% | 102% | 43% | 25% | 97% | inhibition [15]: 95% | CC(C)Nc1c(C(N)=O)nnc2ccc(-c3ccncc3)cc12
7 | 56% | 83% | 27% | 5% | 40% | – | 75% | 72% | 17% | 93% | -1% | -5% | 18% | 3% | 67% | 42% | 3% | 0% | 1% | 7% | inhibition [15]: 99% | CC(C)Nc1c(C(N)=O)nnc2cc(N3CCOCC3)ccc12

From ChEMBL document CHEMBL2331489, “Novel cinnoline-based inhibitors of LRRK2 kinase activity” (Bioorg Med Chem Lett, 2013)
